The source made the active and inactive calls.
What was measured:
Protein Wnt-3a = Protein Wnt-3a (Mus musculus, UniProt P27467); experiment: Wnt3a-driven reporter signaling inhibition, dose response, selectivity assay for Gli-SUFU antagonist project, Wnt-LIGHT cells, luminescence (AID 651570); assay type: functional; details: read-out: IC50_Mean;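 note: Wnt-LIGHT reporter cells stimulated with conditioned medium from Wnt3a-producing cells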
[1] = molecular target: T1, COUP transcription factor 2 (Homo sapiens, UniProt P24468); experiment: Luminescence-based cell-based high throughput dose response assay to identify inhibitors of COUP-TFII (NR2F2).; assay type: functional;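 note: HEK293 cells transiently cotransfected with COUP-TFII expression vector and reporter; luciferase reporter luminescence driven by COUP-TFII from the pX2-168 reporter plasmid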
T1 sequence (P24468 whole entry): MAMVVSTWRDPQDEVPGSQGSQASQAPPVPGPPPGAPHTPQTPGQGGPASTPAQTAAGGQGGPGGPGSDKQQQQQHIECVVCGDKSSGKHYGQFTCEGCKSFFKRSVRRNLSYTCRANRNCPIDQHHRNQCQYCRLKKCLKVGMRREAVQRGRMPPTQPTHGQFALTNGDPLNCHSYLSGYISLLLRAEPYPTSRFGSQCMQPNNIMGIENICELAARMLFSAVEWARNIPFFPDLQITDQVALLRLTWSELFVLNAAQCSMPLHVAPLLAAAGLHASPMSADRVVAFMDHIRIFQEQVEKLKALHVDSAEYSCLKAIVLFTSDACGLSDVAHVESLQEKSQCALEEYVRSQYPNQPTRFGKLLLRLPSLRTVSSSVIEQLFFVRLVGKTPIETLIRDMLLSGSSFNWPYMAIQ

[2] = NIH-3T3 fibroblast cytotoxicity, dose response, cytotoxicity control, cell-based, fluorescence, Alamar Blue, secondary assay (AID 2327); assay type: functional;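 note: NIH-3T3 mouse fibroblasts cultured with fluconazole at 8 µg/mL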
[3] = C. albicans growth with fluconazole, confirmation, fluorescence, retest (AID 2467); assay type: functional, cell-based
[4] = molecular target: Benomyl/methotrexate resistance protein (Candida albicans, UniProt P28873); experiment: CaMdr1 efflux pump inhibitor potency, dose response, singleplex, Cherry Pick1 hits (AID 588608); assay type: functional
[5] = molecular target: Voltage-dependent T-type calcium channel subunit alpha-1H (Homo sapiens, UniProt O95180); assay type: functional;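 note: channel activity triggered by adding a high calcium stimulation buffer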
[6] = molecular target: Potassium voltage-gated channel subfamily KQT member 2 (Rattus norvegicus, UniProt O88943); experiment: KCNQ2 potassium channel inhibitors, dose response, cell-based, automated electrophysiology, set II, rat KCNQ2 (AID 588637); assay type: functional
[7] = molecular target: T2, High affinity choline transporter 1 (Homo sapiens, UniProt Q9GZV3); experiment: CHT activators, dose response, cell-based, 10-point CRC, membrane potential dye (AID 602376); assay type: functional
T2 sequence (Q9GZV3 whole entry): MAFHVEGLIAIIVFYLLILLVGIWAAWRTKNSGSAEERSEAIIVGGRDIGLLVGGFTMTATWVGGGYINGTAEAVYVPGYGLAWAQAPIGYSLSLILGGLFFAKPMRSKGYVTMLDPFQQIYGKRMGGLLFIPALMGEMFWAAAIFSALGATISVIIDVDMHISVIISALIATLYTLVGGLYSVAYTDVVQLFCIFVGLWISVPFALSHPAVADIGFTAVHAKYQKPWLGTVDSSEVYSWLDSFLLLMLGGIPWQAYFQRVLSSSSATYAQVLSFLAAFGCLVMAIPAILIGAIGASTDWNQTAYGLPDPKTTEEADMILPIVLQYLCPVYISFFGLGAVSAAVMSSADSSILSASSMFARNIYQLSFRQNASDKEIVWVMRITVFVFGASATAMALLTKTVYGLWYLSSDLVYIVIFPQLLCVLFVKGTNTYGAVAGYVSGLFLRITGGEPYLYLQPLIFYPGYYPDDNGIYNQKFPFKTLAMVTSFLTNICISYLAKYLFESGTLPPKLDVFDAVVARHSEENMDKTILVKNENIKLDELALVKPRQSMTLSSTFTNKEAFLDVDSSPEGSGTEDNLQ

Prothrombin = Prothrombin (Bos taurus, UniProt P00735); experiment: thrombin inhibition, dose response, biochemical, fluorescence polarization, uHTS hits (AID 602369); assay type: functional
[8] = molecular target: 72 kDa type IV collagenase (Homo sapiens, UniProt P08253); experiment: Dose Response validation of uHTS RPN11 inhibitor hits using a MMP-2 Fluorescence assay.; assay type: functional
[9] = molecular target: 26S proteasome non-ATPase regulatory subunit 14 (Homo sapiens, UniProt O00487); experiment: inhibition of proteasome subunit RPN11 – biochemical, fluorescence polarization, uHTS hits, confirmation (AID 602368); assay type: functional
[10] = molecular target: G-protein coupled receptor 55 (Homo sapiens, UniProt Q9Y2T6); experiment: GPR55 agonists via beta-arrestin recruitment, primary screen, imaging, U2OS cells, beta-arrestin-GFP redistribution (AID 1961); assay type: functional
[11] = molecular target: Apoptotic protease-activating factor 1 (Homo sapiens, UniProt O14727); experiment: SAR analysis of small molecule Activators of Apaf-1 in a Fluorescent assay.; assay type: functional; details: read-out: EC50_Mean;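 note: caspase-3 cleavage of fluorogenic Rh110 DEVD substrate downstream of apoptosome activation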
Caspase-6 = molecular target: T3, Caspase-6 (Homo sapiens, UniProt P55212); experiment: human caspase-6 inhibitors, dose response, biochemical, VEID-R110 fluorescence, cherry-pick (AID 720632)
T3 sequence (P55212 whole entry): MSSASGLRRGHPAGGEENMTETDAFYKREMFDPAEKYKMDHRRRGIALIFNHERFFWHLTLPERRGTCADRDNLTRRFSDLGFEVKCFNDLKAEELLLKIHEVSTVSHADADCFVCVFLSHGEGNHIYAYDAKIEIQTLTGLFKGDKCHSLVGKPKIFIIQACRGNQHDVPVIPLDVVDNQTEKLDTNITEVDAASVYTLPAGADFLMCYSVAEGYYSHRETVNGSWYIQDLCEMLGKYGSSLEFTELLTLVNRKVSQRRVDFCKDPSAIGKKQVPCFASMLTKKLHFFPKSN

[12] = molecular target: Low molecular weight phosphotyrosine protein phosphatase (Homo sapiens, UniProt P24666); assay type: functional; details: read-out: IC50_Mean;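 note: Dose-response confirmation assay measuring inhibition of LMPTP enzyme activity by fluorescence intensity read-out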
Caspase-7 = Caspase-7 (Homo sapiens, UniProt P55210); experiment: human caspase-7 inhibitors, dose response, selectivity assay for caspase-6 inhibitor project, biochemical, DEVD-R110 fluorescence, cherry-pick (AID 743295)
[13] = molecular target: T4, Sentrin-specific protease 6 (Homo sapiens, UniProt Q9GZR1); assay type: functional
T4 sequence (Q9GZR1 whole entry): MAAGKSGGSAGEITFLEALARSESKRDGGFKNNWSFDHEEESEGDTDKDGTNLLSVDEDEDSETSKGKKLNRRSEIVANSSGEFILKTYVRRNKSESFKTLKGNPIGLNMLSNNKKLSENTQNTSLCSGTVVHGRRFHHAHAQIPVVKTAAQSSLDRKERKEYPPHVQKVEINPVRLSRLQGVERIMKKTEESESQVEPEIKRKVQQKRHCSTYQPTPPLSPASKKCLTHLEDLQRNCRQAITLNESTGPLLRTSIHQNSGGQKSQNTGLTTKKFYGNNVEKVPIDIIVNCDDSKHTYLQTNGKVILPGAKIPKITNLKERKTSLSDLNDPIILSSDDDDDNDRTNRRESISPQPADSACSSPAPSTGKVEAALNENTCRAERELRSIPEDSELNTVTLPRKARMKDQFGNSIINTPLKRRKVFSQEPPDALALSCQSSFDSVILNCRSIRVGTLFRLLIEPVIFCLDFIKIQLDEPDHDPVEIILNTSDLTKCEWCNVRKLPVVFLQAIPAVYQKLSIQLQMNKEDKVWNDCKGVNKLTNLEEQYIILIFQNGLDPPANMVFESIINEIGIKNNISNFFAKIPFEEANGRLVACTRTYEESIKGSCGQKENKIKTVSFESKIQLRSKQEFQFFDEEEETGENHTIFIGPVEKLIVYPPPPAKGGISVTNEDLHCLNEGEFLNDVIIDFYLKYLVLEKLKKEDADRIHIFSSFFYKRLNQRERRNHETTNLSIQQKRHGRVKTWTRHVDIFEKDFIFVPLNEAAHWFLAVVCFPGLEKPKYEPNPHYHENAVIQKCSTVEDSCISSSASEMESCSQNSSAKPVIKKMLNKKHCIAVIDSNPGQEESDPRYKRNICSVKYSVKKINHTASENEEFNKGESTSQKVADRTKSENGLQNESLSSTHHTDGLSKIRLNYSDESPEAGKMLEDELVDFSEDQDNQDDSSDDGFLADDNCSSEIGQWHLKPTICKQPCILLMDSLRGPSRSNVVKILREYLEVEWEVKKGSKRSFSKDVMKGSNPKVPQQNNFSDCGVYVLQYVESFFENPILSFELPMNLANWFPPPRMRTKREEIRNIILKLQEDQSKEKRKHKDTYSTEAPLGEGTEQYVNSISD

Caspase-3 [14] = molecular target: T5, Caspase-3 (Homo sapiens, UniProt P42574); assay type: functional
T5 sequence (P42574 whole entry): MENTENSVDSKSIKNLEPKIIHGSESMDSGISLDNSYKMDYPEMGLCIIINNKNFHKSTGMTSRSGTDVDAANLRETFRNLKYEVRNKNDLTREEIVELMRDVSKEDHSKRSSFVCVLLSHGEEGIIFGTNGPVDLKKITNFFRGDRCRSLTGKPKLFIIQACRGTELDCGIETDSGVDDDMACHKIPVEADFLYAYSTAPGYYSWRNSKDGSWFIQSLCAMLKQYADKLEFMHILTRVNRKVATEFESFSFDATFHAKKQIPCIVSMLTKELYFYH

Caspase-3 [15] = molecular target: T5, Caspase-3; experiment: SAR Analysis of small molecule inhibitors of Sentrin-specific proteases (SENPs) using a Caspase-3 Selectivity assay. [Related pubchem assays (depositor defined):AID2540, AID2599, AID434973, AID489001]; assay type: functional
[16] = molecular target: T6, Sentrin-specific protease 8 (Homo sapiens, UniProt Q96LD8); assay type: functional;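 note: luminescence read-out of SENP8 inhibition, dose-response confirmation following an ultra-high-throughput screen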
T6 sequence (Q96LD8 whole entry): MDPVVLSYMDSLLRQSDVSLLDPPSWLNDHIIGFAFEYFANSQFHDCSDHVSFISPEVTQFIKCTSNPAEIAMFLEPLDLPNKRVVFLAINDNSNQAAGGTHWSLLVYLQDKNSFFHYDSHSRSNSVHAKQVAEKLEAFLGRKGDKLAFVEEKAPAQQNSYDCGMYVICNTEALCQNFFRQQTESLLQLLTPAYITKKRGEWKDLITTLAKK

[17] = molecular target: T7, Sentrin-specific protease 7 (Homo sapiens, UniProt Q9BQF6); assay type: functional;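 note: Luminescence-based dose-response confirmation of ultra-high-throughput screening hits, measuring inhibition of SENP7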
T7 sequence (Q9BQF6 whole entry): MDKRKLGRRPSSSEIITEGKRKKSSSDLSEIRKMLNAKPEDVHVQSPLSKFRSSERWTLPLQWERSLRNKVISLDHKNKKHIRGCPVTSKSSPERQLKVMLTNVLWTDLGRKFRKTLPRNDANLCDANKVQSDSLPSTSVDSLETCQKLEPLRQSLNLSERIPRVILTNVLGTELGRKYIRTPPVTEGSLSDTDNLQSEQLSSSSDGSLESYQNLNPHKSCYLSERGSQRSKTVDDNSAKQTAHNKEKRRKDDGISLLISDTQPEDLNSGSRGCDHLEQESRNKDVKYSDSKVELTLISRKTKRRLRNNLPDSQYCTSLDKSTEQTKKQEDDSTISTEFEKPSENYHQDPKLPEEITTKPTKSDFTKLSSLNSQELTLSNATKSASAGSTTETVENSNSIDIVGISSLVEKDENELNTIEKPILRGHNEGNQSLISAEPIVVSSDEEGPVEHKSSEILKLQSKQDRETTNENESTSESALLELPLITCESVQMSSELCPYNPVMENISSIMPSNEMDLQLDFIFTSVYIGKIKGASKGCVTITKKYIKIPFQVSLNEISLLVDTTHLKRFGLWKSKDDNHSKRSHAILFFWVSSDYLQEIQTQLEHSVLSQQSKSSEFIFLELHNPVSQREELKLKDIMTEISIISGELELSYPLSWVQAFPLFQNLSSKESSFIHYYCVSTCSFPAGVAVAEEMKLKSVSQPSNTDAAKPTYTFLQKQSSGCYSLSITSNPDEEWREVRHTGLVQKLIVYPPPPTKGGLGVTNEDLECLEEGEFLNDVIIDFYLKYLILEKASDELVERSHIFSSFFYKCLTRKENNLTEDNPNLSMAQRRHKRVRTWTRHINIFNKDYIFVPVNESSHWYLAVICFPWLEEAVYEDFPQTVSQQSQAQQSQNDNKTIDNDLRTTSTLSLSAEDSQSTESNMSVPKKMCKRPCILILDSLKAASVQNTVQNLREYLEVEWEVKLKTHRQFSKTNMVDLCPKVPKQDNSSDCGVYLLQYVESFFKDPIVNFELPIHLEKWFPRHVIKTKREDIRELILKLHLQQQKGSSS

[18] = molecular target: T4, Sentrin-specific protease 6; experiment: SAR Analysis of small molecule inhibitors of Sentrin-specific protease 6 (SENP6) using a Luminescent assay. [Related pubchem assays (depositor defined):AID2582, AID2599]; assay type: functional
[19] = molecular target: T7, Sentrin-specific protease 7; experiment: SENP7 protease inhibitors, SAR follow-up, biochemical, luminescence (AID 504497); assay type: functional
[20] = molecular target: T6, Sentrin-specific protease 8; experiment: SENP8 protease inhibitors, SAR follow-up, biochemical, luminescence (AID 504501); assay type: functional

Sequence of Voltage-dependent T-type calcium channel subunit alpha-1H (O95180 whole entry): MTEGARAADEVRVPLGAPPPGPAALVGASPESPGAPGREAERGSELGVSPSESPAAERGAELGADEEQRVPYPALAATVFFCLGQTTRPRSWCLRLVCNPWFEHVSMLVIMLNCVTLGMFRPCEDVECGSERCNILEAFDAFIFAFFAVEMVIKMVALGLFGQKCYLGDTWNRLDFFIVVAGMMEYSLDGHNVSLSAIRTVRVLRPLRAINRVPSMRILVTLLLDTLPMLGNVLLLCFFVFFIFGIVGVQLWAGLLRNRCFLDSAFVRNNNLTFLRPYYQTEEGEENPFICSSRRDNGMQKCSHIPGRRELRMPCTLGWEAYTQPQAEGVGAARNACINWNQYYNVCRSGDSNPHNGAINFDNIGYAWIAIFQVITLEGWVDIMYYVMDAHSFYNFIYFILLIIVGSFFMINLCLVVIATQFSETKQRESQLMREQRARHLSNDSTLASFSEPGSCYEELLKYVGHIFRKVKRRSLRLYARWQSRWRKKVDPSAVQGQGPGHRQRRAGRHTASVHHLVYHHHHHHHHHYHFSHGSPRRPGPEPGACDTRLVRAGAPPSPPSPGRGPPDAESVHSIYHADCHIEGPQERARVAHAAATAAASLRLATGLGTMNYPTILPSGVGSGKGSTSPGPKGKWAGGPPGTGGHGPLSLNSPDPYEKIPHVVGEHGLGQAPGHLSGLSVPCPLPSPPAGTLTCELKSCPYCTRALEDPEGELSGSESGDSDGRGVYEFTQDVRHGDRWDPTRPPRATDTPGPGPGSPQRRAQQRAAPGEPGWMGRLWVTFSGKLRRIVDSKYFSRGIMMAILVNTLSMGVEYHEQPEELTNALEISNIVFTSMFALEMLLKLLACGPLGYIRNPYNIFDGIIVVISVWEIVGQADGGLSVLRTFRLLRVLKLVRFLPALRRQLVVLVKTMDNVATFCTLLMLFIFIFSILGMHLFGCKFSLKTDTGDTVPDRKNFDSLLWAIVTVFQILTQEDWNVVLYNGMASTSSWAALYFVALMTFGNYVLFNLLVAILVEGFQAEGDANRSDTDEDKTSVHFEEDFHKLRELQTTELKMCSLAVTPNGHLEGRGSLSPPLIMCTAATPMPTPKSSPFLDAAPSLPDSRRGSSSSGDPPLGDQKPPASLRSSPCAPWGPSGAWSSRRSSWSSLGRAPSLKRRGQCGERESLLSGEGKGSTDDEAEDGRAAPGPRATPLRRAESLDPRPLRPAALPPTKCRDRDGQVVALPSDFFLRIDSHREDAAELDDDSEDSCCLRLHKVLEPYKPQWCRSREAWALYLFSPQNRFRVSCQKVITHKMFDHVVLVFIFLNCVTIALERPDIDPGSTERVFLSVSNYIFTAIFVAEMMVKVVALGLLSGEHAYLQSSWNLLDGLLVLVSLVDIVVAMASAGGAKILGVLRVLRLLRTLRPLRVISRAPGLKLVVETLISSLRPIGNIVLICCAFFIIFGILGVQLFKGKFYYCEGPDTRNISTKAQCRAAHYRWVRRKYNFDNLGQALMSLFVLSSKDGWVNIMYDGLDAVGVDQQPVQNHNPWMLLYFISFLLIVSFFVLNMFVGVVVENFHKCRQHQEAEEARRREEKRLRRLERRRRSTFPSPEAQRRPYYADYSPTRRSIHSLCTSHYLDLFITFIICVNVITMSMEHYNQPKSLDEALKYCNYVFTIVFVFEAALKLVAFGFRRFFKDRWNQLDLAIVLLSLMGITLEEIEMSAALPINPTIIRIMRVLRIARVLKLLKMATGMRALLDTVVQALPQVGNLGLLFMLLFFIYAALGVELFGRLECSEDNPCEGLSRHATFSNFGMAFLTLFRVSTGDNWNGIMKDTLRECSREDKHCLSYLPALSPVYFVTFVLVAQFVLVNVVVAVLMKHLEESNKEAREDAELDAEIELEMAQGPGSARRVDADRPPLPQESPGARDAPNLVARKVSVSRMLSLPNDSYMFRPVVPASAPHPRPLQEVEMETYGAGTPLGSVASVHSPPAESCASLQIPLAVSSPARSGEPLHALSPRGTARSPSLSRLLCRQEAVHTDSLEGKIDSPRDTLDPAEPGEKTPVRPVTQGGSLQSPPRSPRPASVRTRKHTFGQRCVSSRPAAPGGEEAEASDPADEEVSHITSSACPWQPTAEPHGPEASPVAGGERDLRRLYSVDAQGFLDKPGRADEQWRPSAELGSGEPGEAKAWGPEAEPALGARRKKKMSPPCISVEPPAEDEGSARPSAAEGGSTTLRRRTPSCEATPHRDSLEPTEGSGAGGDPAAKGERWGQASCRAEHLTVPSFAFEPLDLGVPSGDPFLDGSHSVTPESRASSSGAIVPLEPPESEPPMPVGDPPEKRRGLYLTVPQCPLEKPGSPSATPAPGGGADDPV
Sequence of G-protein coupled receptor 55 (Q9Y2T6 whole entry): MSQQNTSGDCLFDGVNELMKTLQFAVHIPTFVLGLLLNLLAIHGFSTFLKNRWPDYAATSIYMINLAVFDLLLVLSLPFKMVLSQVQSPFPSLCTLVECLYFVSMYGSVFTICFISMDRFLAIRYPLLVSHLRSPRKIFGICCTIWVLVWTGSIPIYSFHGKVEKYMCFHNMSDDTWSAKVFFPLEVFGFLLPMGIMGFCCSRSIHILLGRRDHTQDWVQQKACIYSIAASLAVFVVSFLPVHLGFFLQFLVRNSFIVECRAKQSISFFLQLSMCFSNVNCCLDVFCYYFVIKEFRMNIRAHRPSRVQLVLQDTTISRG
Sequence of Potassium voltage-gated channel subfamily KQT member 2 (O88943 whole entry): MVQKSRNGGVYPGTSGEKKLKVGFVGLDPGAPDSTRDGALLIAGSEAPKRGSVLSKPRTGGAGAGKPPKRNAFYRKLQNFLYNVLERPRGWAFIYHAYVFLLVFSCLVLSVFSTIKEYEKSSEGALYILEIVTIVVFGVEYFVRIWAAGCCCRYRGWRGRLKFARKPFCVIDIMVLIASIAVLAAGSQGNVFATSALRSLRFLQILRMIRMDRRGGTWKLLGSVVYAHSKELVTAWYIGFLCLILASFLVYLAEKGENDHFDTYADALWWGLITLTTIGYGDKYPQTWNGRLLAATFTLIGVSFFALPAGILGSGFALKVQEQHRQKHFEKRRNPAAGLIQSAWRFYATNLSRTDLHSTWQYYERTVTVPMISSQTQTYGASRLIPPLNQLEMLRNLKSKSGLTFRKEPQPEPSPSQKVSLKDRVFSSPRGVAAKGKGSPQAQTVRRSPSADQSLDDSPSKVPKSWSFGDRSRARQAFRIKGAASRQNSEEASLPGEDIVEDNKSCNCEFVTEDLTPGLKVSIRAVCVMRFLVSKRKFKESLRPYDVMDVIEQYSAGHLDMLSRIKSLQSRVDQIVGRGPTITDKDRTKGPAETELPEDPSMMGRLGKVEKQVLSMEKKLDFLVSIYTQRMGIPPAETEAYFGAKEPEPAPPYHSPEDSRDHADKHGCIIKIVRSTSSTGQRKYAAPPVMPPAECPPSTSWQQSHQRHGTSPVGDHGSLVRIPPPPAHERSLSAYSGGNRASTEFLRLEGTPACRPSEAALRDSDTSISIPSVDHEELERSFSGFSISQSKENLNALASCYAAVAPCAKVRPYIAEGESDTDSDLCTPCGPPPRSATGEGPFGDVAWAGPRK
Sequence of 72 kDa type IV collagenase (P08253 whole entry): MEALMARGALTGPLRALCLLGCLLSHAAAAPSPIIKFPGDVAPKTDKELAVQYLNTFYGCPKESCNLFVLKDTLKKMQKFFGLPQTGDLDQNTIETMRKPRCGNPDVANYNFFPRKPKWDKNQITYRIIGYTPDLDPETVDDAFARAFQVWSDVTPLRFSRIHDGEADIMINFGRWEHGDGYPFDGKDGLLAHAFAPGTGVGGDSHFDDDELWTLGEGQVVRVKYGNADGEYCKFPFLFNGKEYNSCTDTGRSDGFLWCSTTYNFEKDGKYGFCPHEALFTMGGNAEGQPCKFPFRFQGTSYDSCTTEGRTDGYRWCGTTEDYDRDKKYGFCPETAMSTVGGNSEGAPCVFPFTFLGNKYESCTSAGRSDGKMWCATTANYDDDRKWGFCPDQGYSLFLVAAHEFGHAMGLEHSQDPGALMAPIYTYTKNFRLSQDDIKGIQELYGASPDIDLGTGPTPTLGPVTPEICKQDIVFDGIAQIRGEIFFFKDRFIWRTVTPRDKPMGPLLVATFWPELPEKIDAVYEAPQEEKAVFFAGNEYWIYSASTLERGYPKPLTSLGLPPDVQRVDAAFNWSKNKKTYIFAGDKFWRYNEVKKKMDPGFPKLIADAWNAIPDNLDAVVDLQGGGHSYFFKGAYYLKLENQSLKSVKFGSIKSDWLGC
Sequence of Benomyl/methotrexate resistance protein (P28873 whole entry): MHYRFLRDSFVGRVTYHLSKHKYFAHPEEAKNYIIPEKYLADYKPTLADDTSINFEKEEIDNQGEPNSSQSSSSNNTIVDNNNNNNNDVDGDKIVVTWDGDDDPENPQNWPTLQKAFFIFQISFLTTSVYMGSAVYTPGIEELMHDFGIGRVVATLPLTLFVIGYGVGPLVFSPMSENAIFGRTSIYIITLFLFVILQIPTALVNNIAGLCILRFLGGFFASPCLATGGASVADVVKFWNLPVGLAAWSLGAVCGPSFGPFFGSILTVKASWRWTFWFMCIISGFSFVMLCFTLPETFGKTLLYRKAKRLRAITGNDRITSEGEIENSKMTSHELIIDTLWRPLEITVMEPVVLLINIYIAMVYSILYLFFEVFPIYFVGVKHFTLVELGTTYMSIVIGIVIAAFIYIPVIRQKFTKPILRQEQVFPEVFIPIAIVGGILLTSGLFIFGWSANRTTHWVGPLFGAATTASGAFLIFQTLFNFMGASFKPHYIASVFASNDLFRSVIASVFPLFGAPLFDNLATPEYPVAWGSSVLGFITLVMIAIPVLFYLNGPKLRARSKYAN
Sequence of Protein Wnt-3a (P27467 whole entry): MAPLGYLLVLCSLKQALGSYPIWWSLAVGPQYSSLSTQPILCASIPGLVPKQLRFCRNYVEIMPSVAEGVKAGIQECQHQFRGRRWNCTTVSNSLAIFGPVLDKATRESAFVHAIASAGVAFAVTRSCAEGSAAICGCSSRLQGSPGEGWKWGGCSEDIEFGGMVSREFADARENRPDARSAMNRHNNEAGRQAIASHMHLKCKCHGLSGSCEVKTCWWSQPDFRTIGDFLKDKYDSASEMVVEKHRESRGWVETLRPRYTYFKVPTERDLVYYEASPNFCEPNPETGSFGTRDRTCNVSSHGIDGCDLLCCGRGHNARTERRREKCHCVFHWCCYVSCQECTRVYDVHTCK

## Cc1nn(C)c(C)c1/C=C/C(=O)c1ccc(Cl)cc1Cl
Protein Wnt-3a
  IC50: 2.49 µM (active)
[1]
  IC50: 14.8 µM (inactive)
[2]
  EC50: 84.9 µM (inconclusive)
[3]
  EC50: 3.56 µM (active)

## COc1ccc(C2CC(c3ccccc3C(F)(F)F)=NN2c2ccc(S(N)(=O)=O)cc2)cc1 (stereo unspecified)
[4]
  EC50: 22.6 µM (active)

## COc1ccc(-c2nc(CSCC(=O)NC3CCCc4ccccc43)c(C)o2)cc1 (stereo unspecified)
[5]
  EC50: 3.95 µM (active)
[6]
  IC50: 1.76 µM (active)

## Fc1ccc(C(c2nnnn2C2CCCC2)N(Cc2ccco2)CC2CCCO2)cc1 (stereo unspecified)
[7]
  EC50: 14.5 µM (active)
[5]
  EC50: 3.83 µM (active)

## CC1CCN(c2ccc3c(c2)S(=O)(=O)c2cccc(C(=O)NC4CCCCC4)c2C3=O)CC1
Prothrombin
  IC50: 26.8 µM (active)
[8]
  IC50: > 100 µM (inactive)
[9]
  IC50: 14.1 µM (active)

## CCc1ccc(Nc2n[n+](-c3ccccc3)c(-c3ccc(SC)cc3)s2)cc1
[10]
  EC50: 23.1 µM (inactive)
[7]
  EC50: 10.2 µM (active)

## O=C(Nc1cccc(O)c1)C1CC(c2ccc(F)cc2)=NO1 (stereo unspecified)
[11]
  EC50: > 100 µM (inactive)

## CCCCNC(=O)c1nc(C2CCNCC2)oc1-c1cccc(C(F)(F)F)c1
Caspase-6
  AC50: 1.6 µM (active)
[12]
  IC50: 39.9 µM (inactive)
Caspase-7
  AC50: > 70 µM (inactive)

## Cc1ccc(NC(=O)C(=O)c2c[nH]c3ccccc23)cc1
[13]
  IC50: > 100 µM (inactive)
Caspase-3 [14]
  IC50: 18.6 µM (active)
Caspase-3 [15]
  IC50: 9.05 µM (active)
[16]
  IC50: > 100 µM (inactive)
[17]
  IC50: 2.41 µM (active)
[18]
  IC50: > 99 µM (inactive)
[19]
  IC50: 2.33 µM (active)
[20]
  IC50: > 99 µM (inactive)

Source: ChEMBL document CHEMBL1201862, “PubChem BioAssay data set” (2004)
